The values that follow come from patent EP0079489A1, “Methotrexate-labeled iodothyronine conjugates and method, reagent means and test device for the determination of iodothyronine in or iodothyronine uptake of a liquid sample” (MILES LABORATORIES, INC., priority 1981, dated 1983).

For test [1], the system named is Antibody to Thyroxine. The test can be described thus: Competitive binding assay for thyroxine, dihydrofolate reductase activity read-out (Example 1E). To be noted: 100 µl of 0.16 µM conjugate. How it is done:
(§1) The standard assay consisted of 0.10 mM dihydrofolate (DHF), 0.10 mM NADPH, 0.001 unit/bovine liver dihydrofolate reductase (Sigma Chemical Co., St. Louis, MO) and 0.1 M sodium phosphate (pH 6.0) in a final volume of 2.0 ml. The reaction mixture without dihydrofolate was incubated at 37°C for 5 minutes, then the reaction was initiated by adding dihydrofolate, and an initial absorbance at 340 nm was recorded with a Gilford 250 spectrophotometer (Gilford Instrument Laboratories, Oberlin, OH). The reaction was allowed to proceed for 20 minutes at 37°C and then a final reading was recorded. The enzyme activity was expressed as the change in absorbance (AA) at 340 nanometers (nm) that occurred during the 20 minute (min) reaction.
The standard concentrations of NADPH, buffer, antibody to thyroxine and various concentrations of thyroxine were incubated at room remperature for a minimum of 30 seconds. Then 100 µl of […] methotrexate-aminobutylthyroxine was added and the mixture was incubated at room temperature for 2 minutes. Following the second incubation, dihydrofolate reductase was added and the mixture was incubated an additional 5 minutes at 37°C. The reaction was initiated and monitored in the usual manner.

For test [2], the system named is Antibody to Thyroxine. Put plainly: Titration of antibody to thyroxine with the labeled conjugate, dihydrofolate reductase activity read-out (Example 1D). The test is classed as binding. The following applies: 75 µl of 0.16 µM conjugate (6 nM). How it is done: as §1
Various concentrations of antibody to thyroxine and the standard concentrations of NADPH, 6 nM methotrexate-aminobutylthyroxine and buffers were incubated for 2 minutes at room temperature. Dihydrofolate reductase was then added, and the incubation was continued for 5 minutes at 37°C. The enzyme catalyzed reaction was initiated by addition of dihydrofolate and monitored as described above.

The target of test [3] is T1, bovine liver dihydrofolate reductase (Bos taurus, UniProt P00376).
T1 construct: bovine liver dihydrofolate reductase (Sigma Chemical Co., St. Louis, MO); purchased Sigma Chemical Co., St. Louis, MO; host or cells: bovine liver
T1 sequence (P00376 1-187): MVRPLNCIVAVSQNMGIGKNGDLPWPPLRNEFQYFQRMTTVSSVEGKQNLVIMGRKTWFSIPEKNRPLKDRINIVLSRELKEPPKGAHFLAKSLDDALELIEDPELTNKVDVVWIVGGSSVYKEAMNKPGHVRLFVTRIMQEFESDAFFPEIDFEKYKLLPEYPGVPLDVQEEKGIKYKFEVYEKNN
Put plainly: Inhibition of dihydrofolate reductase by the labeled conjugate (Example 1C). The test is classed as biochemical. The following applies: for ΔA340/20 Min: 37°C, without conjugate 0.645. The procedure: as §1
Various concentrations of methotrexate-aminobutylthroxine conjugate were incubated with the standard concentrations of NADPH, dihydrofolate reductase and buffer for 5 minutes at 37°C. The reaction was initiated as discussed above with the addition of dihydrofolate.

In test [4] the test system is Rabbit antibody to thyroxine. Put plainly: Titration of antibody to thyroxine with the labeled conjugate, thiazoyl blue colorimetric read-out (Example 2B). The test is classed as binding. The following applies: 40 µl Reagent 5 (conjugate), 10 minutes. The procedure: Thyroxine-free serum was prepared by treatment of pooled human serum with charcoal [Larsen et al, J. Clin. Endocrinol. Metab. 37:177(1973)]. All reagents except thyroxine-free serum or as otherwise indicated below were prepared in 0.1 M sodium phosphate buffer, pH 6.5, containing 0.3 M potassium chloride and 0.005% sodium azide. • Reagent 1 - Mixture of 6.5 ml of 10 mM 8-anilinonaphthalene sulfonic acid and 10 ml of thyroxine-free serum. • Reagent 2 - Mixture of 1.0 ml of bovine liver dihydrofolate reductase (0.152 units/ml) and 1.0 ml of 11 mM thiazoyl blue. • Reagent 3 - 0.114 mM dihydrofolate in 0.085 M sodium phosphate buffer, pH 6.2, 0.255 mM potassium chloride, and 0.043% sodium azide. • Reagent 4 - Rabbit antibody to thyroxine diluted 10-fold in buffer. • Reagent 5 - […] methotrexate-thyroxine conjugate (Part A above) in 10 mM sodium carbonate buffer, pH 9.5. • Reagent 6 - 10 mM NADPH in 10 mM sodium carbonate buffer, pH 9.5.
Various amounts of Reagent 4 (indicated in Table 4 below) were mixed with 40 µl of Reagent 5, 90 µl of Reagent 6, and sufficient buffer to make a final volume of 625 pl. Then 175 µl of Reagent 1 was added to each followed by 250 µl of buffer and the incubation was continued. After 10 minutes from the addition of Reagent 3, the absorbance at 560 nm was recorded for each reaction mixture and shown in Table 4.

In the case of `CN(Cc1cnc2nc(N)nc(N)c2n1)c1ccc(C(=O)NC(CCC(=O)NCCCCNC(Cc2cc(I)c(Oc3cc(I)c(O)c(I)c3)c(I)c2)C(=O)O)C(=O)O)cc1` (stereo not shown) [Methotrexate-Aminobutyl-Thyroxine, Methotrexate-aminobutylthyroxine Conjugate], the “ΔA340/20 Min” value came to 0.645 with Antibody to Thyroxine [1] (30 µl antibody to thyroxine 1:4 dil, no thyroxine); 0.458 in the test on Antibody to Thyroxine [1] (no antibody, without conjugate 0.620); 0.579 with Antibody to Thyroxine [2] (10 µl antibody to thyroxine 1:9 dilution); 0.602 with Antibody to Thyroxine [2] (20 µl antibody to thyroxine 1:9 dilution); 0.664 with Antibody to Thyroxine [2] (40 µl antibody to thyroxine 1:9 dilution); 0.656 in the test on Antibody to Thyroxine [2] (80 µl antibody to thyroxine 1:9 dilution). Moreover, the “ΔA340/20 Min” value in the test on Antibody to Thyroxine [2] (160 µl antibody to thyroxine 1:9 dilution) is on record as 0.667; with Antibody to Thyroxine [2] (no antibody, without conjugate and antibody 0.691), 0.499; in test [3] (25 μl of 0.16 μM conjugate in 2.0 ml final volume), 0.566; in test [3] (50 μl of 0.16 μM conjugate in 2.0 ml final volume), 0.495; in test [3] (100 μl of 0.16 μM conjugate in 2.0 ml final volume), 0.433; in test [3] (200 μl of 0.16 μM conjugate in 2.0 ml final volume), 0.306. Further, the “inhibition of dihydrofolate reductase (verdict in words)” value in test [3] (various concentrations of conjugate, Table 1) is on record as “effective inhibitor”.
Turning to `CN(Cc1cnc2nc(N)nc(N)c2n1)c1ccc(C(=O)NC(CCC(=O)NC(Cc2cc(I)c(Oc3cc(I)c(O)c(I)c3)c(I)c2)C(=O)O)C(=O)O)cc1` (stereo not shown) [methotrexate-thyroxine conjugate, Methotrexate-thyroxine Conjugate], the “Average Absorbance (560 nm)” value is 0.538 in test [4] (20 µl Reagent 4 (rabbit antibody diluted 10-fold)); 0.581 in test [4] (40 µl Reagent 4 (rabbit antibody diluted 10-fold)); 0.632 in test [4] (80 µl Reagent 4 (rabbit antibody diluted 10-fold)); 0.689 in test [4] (160 µl Reagent 4 (rabbit antibody diluted 10-fold)); 0.737 in test [4] (320 µl Reagent 4 (rabbit antibody diluted 10-fold)); 0.478 in test [4] (no antibody solution, thyroxine-free serum present).
